Biological target: T1, CB1 receptor (Mus musculus, UniProt P47746)
T1 construct: gene Cnr1; pcDNA3 CB1 (Addgene plasmid # 13391) overexpressed in COS7 cells
Assay: Fluo-8 Ca2+ imaging in CB1-transfected COS7 cells; concentration-response, blocked by AM251
Assay type: cell-based

T1 sequence (P47746 whole entry): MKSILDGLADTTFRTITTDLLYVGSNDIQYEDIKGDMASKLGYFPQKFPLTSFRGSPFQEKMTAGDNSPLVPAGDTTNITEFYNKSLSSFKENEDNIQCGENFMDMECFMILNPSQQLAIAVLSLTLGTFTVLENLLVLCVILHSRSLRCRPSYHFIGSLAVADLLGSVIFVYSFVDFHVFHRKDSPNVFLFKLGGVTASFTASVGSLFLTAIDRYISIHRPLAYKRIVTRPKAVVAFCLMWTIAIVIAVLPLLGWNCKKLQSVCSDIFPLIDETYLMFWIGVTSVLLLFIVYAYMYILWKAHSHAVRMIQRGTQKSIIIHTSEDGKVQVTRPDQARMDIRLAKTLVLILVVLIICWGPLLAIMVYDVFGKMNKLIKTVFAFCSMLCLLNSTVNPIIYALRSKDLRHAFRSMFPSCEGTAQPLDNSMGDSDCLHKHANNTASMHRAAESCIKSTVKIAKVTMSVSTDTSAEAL

With CCCCC/C=C\C/C=C\C/C=C\C/C=C\CCCC(=O)OC[C@@H](O)CO [1-AG] as the compound, how does the EC50 read?
Its EC50 is 1.9 µM.

For CCCCC/C=C\C/C=C\C/C=C\C/C=C\CCCC(=O)OC(CO)CO [2-AG], which EC50 is on record?
The EC50 was 0.6 µM.
